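Cells were grown in 96-well plates and exposed to each compound for 48 hours at five concentrations; endpoints were interpolated linearly between bracketing concentrations, or set to the highest concentration if not reached. TGI: total growth inhibition.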

The first test concerns HOP-62 NSCLC. The test can be described thus: DTP human tumour cell line panel, 48 h.
What is called TGI is the concentration at which net growth stops. Read a high TGI as less potent growth arrest. As to `Nc1nc(Cl)cc(NCC2(CO)CC(=O)C2)n1`, the TGI is > 100 µM.
Take `O=C(N/N=C(/COc1ccc(Cl)cc1)N=Cc1ccncc1)c1ccncc1`: the TGI is > 100 µM.
As for `COc1ccc2cc(NC(=O)N/N=C\c3ccc([N+](=O)[O-])cc3)ccc2c1`, the total growth inhibition concentration (TGI) worked out at 48.5 µM.
Consider `COc1cc2nc3n(c(=O)c2cc1OC)-c1ccc([N+](=O)[O-])cc1C3=O`, for which the TGI is > 100 µM.
Take `COc1cc(Br)cc2cc(-c3cn4ccsc4n3)c(=O)oc12`: the TGI was > 100 µM.
Still for that read-out and setting: then `COc1ccc(N/N=C2\CCOc3ccc(C)cc3C2=O)cc1`, with > 100 µM; and `COC(=O)C1SC(SC)=NC12c1ccccc1Nc1ccccc12` (configuration not stated), with > 100 µM; and `Nc1nc(SCCc2ccccc2)c2[nH]cnc2n1`, with > 100 µM.
The same measure, in the same setting: for `N#CC1(C#N)N[C@@H](c2ccsc2)[C@H]2C(=O)N(c3ccccc3)C(=O)[C@H]21` the value was > 100 µM.

The next test has as its system HOP-92 NSCLC. The test can be described thus: DTP human tumour cell line panel, 48 h.
Compound `CCCCCCc1cc2cc(-c3csc(CC#N)n3)c(=O)oc2cc1O` returned a TGI of 69 µM.
As to `CC(=O)NC(Cc1ccc(O)cc1)C(=O)O` (configuration not stated), the TGI was > 100 µM.
On to `O=C1CSC(c2ccc(Cl)cc2)N1c1ccc(Oc2ccc(Cl)cc2)c(Cl)c1` (configuration not stated), for which the TGI worked out at 30.3 µM.
The same measure, in the same setting: then `Nn1c(-c2ccccc2)nn(C(=O)c2ccccc2)c1=O`, with > 100 µM.
For the compound `COC(=O)C([C@H](NC1(c2ccccc2)c2ccccc2-c2ccccc21)C(=O)OC)N(NC(=O)OCc1ccccc1)C(=O)OCc1ccccc1` (mixture of isomers), the TGI was > 100 µM.
In the case of `CC[C@@H]1CC[C@@H]2[C@H](CC[C@]3(C)[C@@H](OC(C)=O)CC[C@@H]23)[C@H]1COC(C)=O`, the TGI was determined as 69.8 µM. In other words, the double-digit micromolar range.
The same measure, in the same setting: then `Cc1ccc(N=NC(=Nc2ccccc2)c2ccc(N(CCC#N)CCC#N)cc2)cc1`, with 64.8 µM.
On the same count and under the same terms, then `O=c1ccc(-c2ccccc2)n[nH]1`, with > 100 µM; and `CC(=O)O[C@@H]1[C@H](C(C)C)[C@@H](OC(C)=O)C/C(C)=C/CC[C@]2(C)O[C@@H]12`, with > 100 µM; and `CN1CCc2cc(N)cc3c2C1Cc1ccc(O)c(O)c1-3` (configuration not stated), with > 100 µM.
Still for that read-out and setting: then `Nc1nc(Cl)cc(NCC2(CO)CC(=O)C2)n1`, with > 100 µM; and `O=C(N/N=C(/COc1ccc(Cl)cc1)N=Cc1ccncc1)c1ccncc1`, with > 100 µM.
As to `COc1ccc2cc(NC(=O)N/N=C\c3ccc([N+](=O)[O-])cc3)ccc2c1`, the TGI was > 100 µM.
Turning to `COc1cc2nc3n(c(=O)c2cc1OC)-c1ccc([N+](=O)[O-])cc1C3=O`, the TGI was > 100 µM.
The same measure, in the same setting: then `COc1cc(Br)cc2cc(-c3cn4ccsc4n3)c(=O)oc12`, with 71.9 µM.
The same measure, in the same setting: then `COc1ccc(N/N=C2\CCOc3ccc(C)cc3C2=O)cc1`, with > 100 µM; and `COC(=O)C1SC(SC)=NC12c1ccccc1Nc1ccccc12` (configuration not stated), with 69.8 µM.
On the same count and under the same terms, for `Nc1nc(SCCc2ccccc2)c2[nH]cnc2n1` the value was > 100 µM; for `O=C1CC(NC(=O)C(F)(F)F)c2c(Br)sc(N3CCNCC3)c21` (configuration not stated), > 100 µM.
On to `c1ccc(-c2nc(-c3ccccc3SSc3ccccc3-c3nc(-c4ccccc4)nn3-c3ccccc3)n(-c3ccccc3)n2)cc1`, for which the TGI was > 100 µM.
Same read-out and setting: for `N#CC1(C#N)N[C@@H](c2ccsc2)[C@H]2C(=O)N(c3ccccc3)C(=O)[C@H]21` the value was > 100 µM.

The next test relates to NCI-H23 lung. The test can be described thus: DTP human tumour cell line panel, 48 h.
Take `CCCCCCc1cc2cc(-c3csc(CC#N)n3)c(=O)oc2cc1O`: the TGI was > 100 µM.
Still for that read-out and setting: then `CC(=O)NC(Cc1ccc(O)cc1)C(=O)O` (configuration not stated), with > 100 µM.
On the same count and under the same terms, then `O=C1CSC(c2ccc(Cl)cc2)N1c1ccc(Oc2ccc(Cl)cc2)c(Cl)c1` (configuration not stated), with 31.4 µM; and `Nn1c(-c2ccccc2)nn(C(=O)c2ccccc2)c1=O`, with > 100 µM; and `COC(=O)C([C@H](NC1(c2ccccc2)c2ccccc2-c2ccccc21)C(=O)OC)N(NC(=O)OCc1ccccc1)C(=O)OCc1ccccc1` (mixture of isomers), with > 100 µM.
The same measure, in the same setting: for `CC[C@@H]1CC[C@@H]2[C@H](CC[C@]3(C)[C@@H](OC(C)=O)CC[C@@H]23)[C@H]1COC(C)=O` the value was 79.1 µM; for `Cc1ccc(N=NC(=Nc2ccccc2)c2ccc(N(CCC#N)CCC#N)cc2)cc1`, 43.9 µM.
On to `O=c1ccc(-c2ccccc2)n[nH]1`, for which the total growth inhibition concentration (TGI) is > 100 µM.
The same measure, in the same setting: for `CC(=O)O[C@@H]1[C@H](C(C)C)[C@@H](OC(C)=O)C/C(C)=C/CC[C@]2(C)O[C@@H]12` the value was > 100 µM; for `CN1CCc2cc(N)cc3c2C1Cc1ccc(O)c(O)c1-3` (configuration not stated), > 100 µM; for `Nc1nc(Cl)cc(NCC2(CO)CC(=O)C2)n1`, > 100 µM.
On the same count and under the same terms, then `O=C(N/N=C(/COc1ccc(Cl)cc1)N=Cc1ccncc1)c1ccncc1`, with > 100 µM; and `COc1ccc2cc(NC(=O)N/N=C\c3ccc([N+](=O)[O-])cc3)ccc2c1`, with 77.9 µM.
`COc1cc2nc3n(c(=O)c2cc1OC)-c1ccc([N+](=O)[O-])cc1C3=O`: the TGI was > 100 µM.
Turning to `COc1cc(Br)cc2cc(-c3cn4ccsc4n3)c(=O)oc12`, the TGI was > 100 µM.
Same read-out and setting: then `COC(=O)C1SC(SC)=NC12c1ccccc1Nc1ccccc12` (configuration not stated), with 38.9 µM.
Same read-out and setting: then `Nc1nc(SCCc2ccccc2)c2[nH]cnc2n1`, with > 100 µM; and `O=C1CC(NC(=O)C(F)(F)F)c2c(Br)sc(N3CCNCC3)c21` (configuration not stated), with > 100 µM; and `c1ccc(-c2nc(-c3ccccc3SSc3ccccc3-c3nc(-c4ccccc4)nn3-c3ccccc3)n(-c3ccccc3)n2)cc1`, with > 100 µM.
Same read-out and setting: then `N#CC1(C#N)N[C@@H](c2ccsc2)[C@H]2C(=O)N(c3ccccc3)C(=O)[C@H]21`, with > 100 µM.

Another test relates to NCI/ADR-RES ovarian. The test can be described thus: DTP human tumour cell line panel, 48 h.
As to `CCCCCCc1cc2cc(-c3csc(CC#N)n3)c(=O)oc2cc1O`, the TGI is > 100 µM.
On the same count and under the same terms, then `CC(=O)NC(Cc1ccc(O)cc1)C(=O)O` (configuration not stated), with > 100 µM.
Same read-out and setting: for `O=C1CSC(c2ccc(Cl)cc2)N1c1ccc(Oc2ccc(Cl)cc2)c(Cl)c1` (configuration not stated) the value was 35.3 µM; for `Nn1c(-c2ccccc2)nn(C(=O)c2ccccc2)c1=O`, > 100 µM; for `COC(=O)C([C@H](NC1(c2ccccc2)c2ccccc2-c2ccccc21)C(=O)OC)N(NC(=O)OCc1ccccc1)C(=O)OCc1ccccc1` (mixture of isomers), > 100 µM.
With `CC[C@@H]1CC[C@@H]2[C@H](CC[C@]3(C)[C@@H](OC(C)=O)CC[C@@H]23)[C@H]1COC(C)=O`, the TGI was 76 µM. In other words, the double-digit micromolar range.
Turning to `Cc1ccc(N=NC(=Nc2ccccc2)c2ccc(N(CCC#N)CCC#N)cc2)cc1`, the TGI was > 100 µM.
On the same count and under the same terms, then `O=c1ccc(-c2ccccc2)n[nH]1`, with > 100 µM.
Same read-out and setting: then `CC(=O)O[C@@H]1[C@H](C(C)C)[C@@H](OC(C)=O)C/C(C)=C/CC[C@]2(C)O[C@@H]12`, with > 100 µM; and `CN1CCc2cc(N)cc3c2C1Cc1ccc(O)c(O)c1-3` (configuration not stated), with > 100 µM; and `Nc1nc(Cl)cc(NCC2(CO)CC(=O)C2)n1`, with > 100 µM.
On the same count and under the same terms, then `O=C(N/N=C(/COc1ccc(Cl)cc1)N=Cc1ccncc1)c1ccncc1`, with > 100 µM; and `COc1ccc2cc(NC(=O)N/N=C\c3ccc([N+](=O)[O-])cc3)ccc2c1`, with 97.2 µM; and `COc1cc2nc3n(c(=O)c2cc1OC)-c1ccc([N+](=O)[O-])cc1C3=O`, with > 100 µM.
Consider `COc1cc(Br)cc2cc(-c3cn4ccsc4n3)c(=O)oc12`, for which the concentration for total growth inhibition (TGI) was > 100 µM.
On the same count and under the same terms, then `COc1ccc(N/N=C2\CCOc3ccc(C)cc3C2=O)cc1`, with > 100 µM.
Regarding `COC(=O)C1SC(SC)=NC12c1ccccc1Nc1ccccc12` (configuration not stated), the TGI was > 100 µM.

Values taken from PubChem BioAssay (NCI).
